Measurements from ChEMBL document CHEMBL1201862, “PubChem BioAssay data set” (2004).
Activity calls are given as the source filed them.

Experiments:
Type in all cases: functional
Genome polyprotein = Genome polyprotein (dengue virus type 2, UniProt P29990); test: flavivirus cap methylation enzyme inhibition – biochemical, confirmation dose response, primary screen (AID 588689)
Vero = test: viability of Vero cells under compound – cytotoxicity control for flavivirus capping enzyme inhibitors (AID 588742); details: Chlorocebus sabaeus
[1] = Luminescence Cell-Based Dose Retest to Confirm Inhibitors of Cancer Stem Cells. [Related pubchem assays (depositor defined):AID2717, AID2721]; details: Homo sapiens
[2] = target: T1, High affinity choline transporter 1 (Homo sapiens, UniProt Q9GZV3); test: human choline transporter blockers, potency – cell-based, 5-point CRC, membrane potential dye, dose response (AID 504840)
T1 sequence (Q9GZV3 whole entry): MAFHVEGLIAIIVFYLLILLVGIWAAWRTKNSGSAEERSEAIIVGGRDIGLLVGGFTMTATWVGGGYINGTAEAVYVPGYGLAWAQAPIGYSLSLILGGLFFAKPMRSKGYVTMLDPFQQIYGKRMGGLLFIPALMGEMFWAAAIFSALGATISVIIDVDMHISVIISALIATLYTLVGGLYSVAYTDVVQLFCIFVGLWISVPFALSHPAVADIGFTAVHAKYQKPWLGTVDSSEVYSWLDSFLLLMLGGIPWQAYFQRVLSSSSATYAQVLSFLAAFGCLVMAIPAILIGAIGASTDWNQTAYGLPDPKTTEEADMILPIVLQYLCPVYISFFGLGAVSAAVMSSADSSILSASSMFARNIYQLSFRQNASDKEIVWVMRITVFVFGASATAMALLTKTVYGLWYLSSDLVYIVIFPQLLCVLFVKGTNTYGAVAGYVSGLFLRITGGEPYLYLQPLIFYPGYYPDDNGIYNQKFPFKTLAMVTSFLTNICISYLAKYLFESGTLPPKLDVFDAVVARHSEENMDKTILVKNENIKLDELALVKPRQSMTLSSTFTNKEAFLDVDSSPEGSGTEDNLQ

[3] = target: T1, High affinity choline transporter 1; test: human choline transporter blockers, potency – cell-based, 10-point CRC, membrane potential dye, dose response (AID 588401);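 also: membrane potential dye fluorescence of choline-evoked depolarization via CHT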
[4] = target: Melanin-concentrating hormone receptor 1 (Homo sapiens, UniProt Q99705); test: Late-stage fluorescence-based counterscreen for antagonists of the G-protein coupled receptor 7 (GPR7): cell-based dose response assay to identify antagonists of the melanin-concentrating hormone receptor 1 (MCHR1) Set 6.
[5] = target: T2, Neuropeptides B/W receptor type 1 (Homo sapiens, UniProt P48145); test: human NPBW1 receptor blockade, IC50 – cell-based, fluorescence, dose response, set 6, late-stage follow-up (AID 588583)
T2 sequence (P48145 whole entry): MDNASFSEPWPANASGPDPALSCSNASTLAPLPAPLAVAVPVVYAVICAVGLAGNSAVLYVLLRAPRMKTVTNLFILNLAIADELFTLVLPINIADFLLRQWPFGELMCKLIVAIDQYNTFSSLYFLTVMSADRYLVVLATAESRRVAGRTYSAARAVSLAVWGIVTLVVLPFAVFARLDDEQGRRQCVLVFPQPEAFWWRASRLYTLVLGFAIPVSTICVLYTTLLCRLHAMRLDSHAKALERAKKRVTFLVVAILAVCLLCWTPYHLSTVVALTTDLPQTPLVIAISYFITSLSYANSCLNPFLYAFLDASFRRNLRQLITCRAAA
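For AC50 in this document: cells exposed to compound for roughly 70 hours or longer before luminescence read.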

Chain of Melanin-concentrating hormone receptor 1 (Q99705 whole entry): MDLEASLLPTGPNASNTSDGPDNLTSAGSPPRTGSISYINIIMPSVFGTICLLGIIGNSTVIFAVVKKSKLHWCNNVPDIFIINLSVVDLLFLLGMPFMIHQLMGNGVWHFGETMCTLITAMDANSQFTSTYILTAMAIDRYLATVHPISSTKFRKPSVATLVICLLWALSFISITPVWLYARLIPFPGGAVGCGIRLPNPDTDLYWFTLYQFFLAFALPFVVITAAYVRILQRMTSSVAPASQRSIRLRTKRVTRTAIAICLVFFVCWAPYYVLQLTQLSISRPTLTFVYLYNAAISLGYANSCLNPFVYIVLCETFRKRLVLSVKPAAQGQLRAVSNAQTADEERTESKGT
Chain of Genome polyprotein (P29990 2492-3391 limits assumed): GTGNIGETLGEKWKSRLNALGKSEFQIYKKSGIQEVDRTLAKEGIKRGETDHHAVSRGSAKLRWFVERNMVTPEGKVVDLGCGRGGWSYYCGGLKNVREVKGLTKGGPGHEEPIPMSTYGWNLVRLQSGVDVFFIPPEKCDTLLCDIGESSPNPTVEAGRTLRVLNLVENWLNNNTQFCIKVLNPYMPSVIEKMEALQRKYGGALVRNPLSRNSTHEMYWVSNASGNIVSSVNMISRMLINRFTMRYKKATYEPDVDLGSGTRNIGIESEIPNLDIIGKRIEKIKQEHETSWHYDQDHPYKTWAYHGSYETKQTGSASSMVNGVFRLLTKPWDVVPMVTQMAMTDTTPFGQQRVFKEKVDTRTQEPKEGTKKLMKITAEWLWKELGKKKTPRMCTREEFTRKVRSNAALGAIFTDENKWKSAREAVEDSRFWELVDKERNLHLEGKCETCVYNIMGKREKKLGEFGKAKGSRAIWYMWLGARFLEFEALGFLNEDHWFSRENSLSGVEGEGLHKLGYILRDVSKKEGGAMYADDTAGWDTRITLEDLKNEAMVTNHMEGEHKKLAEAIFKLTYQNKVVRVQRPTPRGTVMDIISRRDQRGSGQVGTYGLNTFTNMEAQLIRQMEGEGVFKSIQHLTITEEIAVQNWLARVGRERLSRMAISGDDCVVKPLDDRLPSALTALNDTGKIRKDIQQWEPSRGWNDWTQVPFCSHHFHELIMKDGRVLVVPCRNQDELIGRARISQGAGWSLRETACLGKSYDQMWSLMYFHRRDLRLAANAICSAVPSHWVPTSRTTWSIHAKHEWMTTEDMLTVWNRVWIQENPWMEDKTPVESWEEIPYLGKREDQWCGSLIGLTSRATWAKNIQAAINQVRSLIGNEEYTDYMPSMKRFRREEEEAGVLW

IC50 [4] | IC50 [5] | SMILES | IC50 (Genome polyprotein) | CC50 (Vero) | AC50 [1] | IC50 [2] | IC50 [3]
 |  | COc1ccc(C)cc1NC(=O)c1ccccc1NS(=O)(=O)c1ccc(Cl)s1 | 49.3 µM (active) | 22.6 µM (active) | 5.21 µM (active) | 5.82 µM (active) | 1.75 µM (active)
0.173 µM (active) | 0.173 µM (active) | N#CC(c1cccc(F)c1)c1c(Cl)cnn(Cc2cccc3ccccc23)c1=O (configuration not stated) |  |  |  |  | 
